Assays:
mice [1] = assay: tail hanging test, activity on the S.N.C. (central nervous system), mice, oral; assay type: in vivo, mouse; details: 1 hour before the test; for change in vivo at 32 mg/kg / change in vivo at 128 mg/kg: Mus musculus, po, 1 h, read-out: S.N.C.: Hanging test, activity percentages compared with the controls
Protocol: This activity was investigated on mice using the tail hanging test in accordance with the procedure described by Thierry et al. (Behavioral and Neural Biology, 1984, 41, 180-189), which was proposed as a model for the animal for the selection of products active on the S.N.C.
The tests were carried out on batches of 10 male mice for each product and at each dose, the substances to be investigated being administered orally in aqueous solution 1 hour before the test, a control batch only receiving distilled water.
The results of the tests are given in activity percentages compared with the controls.

mice [2] = assay: acetic acid test, analgesic activity, mice, oral; assay type: in vivo, mouse; details: for Analgesia: Acetic acid test, percentages of analgesed animals: Dose: 30 mg/kg, 30 minutes before acetic acid injection; for ED50: Mus musculus, read-out: Analgesia: Acetic acid test, ED50 (dose causing analgesia of 50% of the animals)
Protocol: This was investigated and determined on mice using the acetic acid test according to a procedure derived from that of Troster R. (Fed. Proc. 1959, 18, 412).
20 hours prior to the test, the animals were starved of food and drink. This was followed by the oral administration in aqueous solution of the product to be investigated at a rate of 2 ml of solution per 100 g of body weight, which was followed 30 minutes later by an intraperitoneal injection of 0.25 ml of 0.25% acetic acid solution (wt/v) maintained at 37° C. 30 minutes after this injection, the number of abdominal cramps suffered by the animals were counted for a period of 10 minutes.
The animals were considered to be analgesed when the number of cramps suffered was less than half the mean value of the cramps experienced by the controls.
The products were administered at a dose rate of 30 mg-kg^-1 and the results are given in percentages of analgesed animals. For certain products, several doses were administered and the calculation of their ED50 (dose causing analgesia of 50% of the animals) was determined in log probability units.

**Q.** With CN(C)C(C)(CO)Cc1ccc(Cl)c(Cl)c1 (racemic) [JO 1017, (±) 2-methyl-2-dimethylamino-3-(3,4-dichlorophenyl)-propanol] as the molecule, how does the change in vivo at 32 mg/kg (mice [1]; Dose: 32 mg/kg) read?
**A.** The change in vivo at 32 mg/kg was -65%.

**Q.** And the change in vivo at 128 mg/kg (mice [1]; Dose: 128 mg/kg)?
**A.** Its change in vivo at 128 mg/kg is -85%.

**Q.** What about the “Analgesia: Acetic acid test, percentages of analgesed animals” value (from here on “Analgesia: Acetic acid test, percentages”) (mice [2]) of the same molecule?
**A.** Its value is -86%.

**Q.** What about the ED50 (mice [2]) of the same molecule?
**A.** The ED50 was 14 mg/kg.

**Q.** Which results are given for CC(N)(CO)Cc1ccc(Cl)c(Cl)c1 (racemic) [JO 1275, (±) 2-methyl-2-amino-3-(3,4-dichlorophenyl)-propanol]?
**A.** change in vivo at 32 mg/kg (mice [1]; Dose: 32 mg/kg): -78%; change in vivo at 128 mg/kg (mice [1]; Dose: 128 mg/kg): -86%; Analgesia: Acetic acid test, percentages of analgesed animals (mice [2]): -43%

**Q.** What does the source list for CNC(C)(CO)Cc1ccc(Cl)c(Cl)c1 (racemic) [JO 1276, (±) 2-methyl-2-methylamino-3-(3,4-dichlorophenyl)-propanol]?
**A.** change in vivo at 32 mg/kg (mice [1]; Dose: 32 mg/kg): -58%; change in vivo at 128 mg/kg (mice [1]; Dose: 128 mg/kg): -83%; Analgesia: Acetic acid test, percentages of analgesed animals (mice [2]): -86%; ED50 (mice [2]): 8.5 mg/kg

**Q.** Which “Analgesia: Acetic acid test, percentages” value (mice [2]) does the source give for CCNC(C)(CO)Cc1ccc(Cl)c(Cl)c1 (racemic) [JO 1277, (±) 2-methyl-2-ethylamino-3-(3,4-dichlorophenyl)-propanol] here?
**A.** The value was -43%.

**Q.** With CCN(C)C(C)(CO)Cc1ccc(Cl)c(Cl)c1 (racemic) [JO 1291, (±) 2-methyl-2-(N-methyl, N-ethyl)-amino-3-(3,4-dichlorophenyl)-propanol] as the molecule, how does the change in vivo at 32 mg/kg (mice [1]; Dose: 32 mg/kg) read?
**A.** The change in vivo at 32 mg/kg was -58%.

**Q.** What about the “Analgesia: Acetic acid test, percentages” value (mice [2]) of the same molecule?
**A.** The value was -38%.

**Q.** For CN(CCc1ccccc1)C(C)(CO)Cc1ccc(Cl)c(Cl)c1 (racemic) [JO 1457, (±) 2-methyl-2-[N-methyl, N-(2-phenyl)-ethyl]-amino-3-(3,4-dichlorophenyl)-propanol], which change in vivo at 32 mg/kg (mice [1]; Dose: 32 mg/kg) is on record?
**A.** The change in vivo at 32 mg/kg was -60%.

**Q.** CCCCCC(N)(CO)Cc1ccc(Cl)c(Cl)c1 (racemic) [JO 1562, (±) 2-pentyl-2-amino-3 (3,4-dichlorophenyl)-propanol] was tested. Which change in vivo at 32 mg/kg (mice [1]; Dose: 32 mg/kg) did it give?
**A.** Its change in vivo at 32 mg/kg is -73%.

**Q.** Which change in vivo at 32 mg/kg (mice [1]; Dose: 32 mg/kg) does the source give for CCCCCC(CO)(Cc1ccc(Cl)c(Cl)c1)NC (racemic) [JO 1563, (±) 2-penthyl-2-methylamino-3-(3,4-dichlorophenyl)-propanol] here?
**A.** Its change in vivo at 32 mg/kg is -49%.

**Q.** What about the change in vivo at 128 mg/kg (mice [1]; Dose: 128 mg/kg) of the same molecule?
**A.** Its change in vivo at 128 mg/kg is -71%.

**Q.** For CCCCCC(CO)(Cc1ccc(Cl)c(Cl)c1)N(C)C (racemic) [JO 1564, (±) 2-pentyl-2-dimethylamino-3-(3,4-dichlorophenyl)-propanol], which change in vivo at 128 mg/kg (mice [1]; Dose: 128 mg/kg) is on record?
**A.** Its change in vivo at 128 mg/kg is -74%.

**Q.** With CC(C)C(N)(CO)Cc1ccc(Cl)c(Cl)c1 (racemic) [JO 1579, (±) 2-isopropyl-2-amino-3 (3,4-dichlorophenyl)-propanol] as the molecule, how does the change in vivo at 128 mg/kg (mice [1]; Dose: 128 mg/kg) read?
**A.** The change in vivo at 128 mg/kg was -67%.

**Q.** How did the change in vivo at 128 mg/kg (mice [1]; Dose: 128 mg/kg) turn out when C=CCN(C)C(C)(CO)Cc1ccc(Cl)c(Cl)c1 (racemic) [JO 1581, (±) 21-methyl-2-(N-methyl, N-allyl)-amino-3-(3,4-dichlorophenyl)-propanol] was run?
**A.** Its change in vivo at 128 mg/kg is -61%.

**Q.** What does the source list for CN(C)C(C)(CO)Cc1ccc(Cl)c(Cl)c1 (single isomer, unassigned; (+)) [JO 1240, (+) 2-methyl-2-dimethylamino-3-(3,4-dichlorphenyl)-propanol]?
**A.** S.N.C.: Hanging test, activity percentages compared with the controls (mice [1]; Dose: 32 mg/kg, 32 mg/kg): -77%; S.N.C.: Hanging test, activity percentages compared with the controls (mice [1]; Dose: 128 mg/kg, 128 mg/kg): -85%

**Q.** CC(N)(CO)Cc1ccc(Cl)c(Cl)c1 (single isomer, unassigned; (+)) [JO 1307, (+) 2-methyl-2-amino-3-(3,4-dichlorophenyl)-propanol] was tested. Which “Analgesia: Acetic acid test, percentages” value (mice [2]) did it give?
**A.** Its value is -50%.

**Q.** For CNC(C)(CO)Cc1ccc(Cl)c(Cl)c1 (single isomer, unassigned; (+)) [JO 1308, (+) 2-methyl-2-methylamino-3-(3,4-dichlorophenyl)-propanol], which “Analgesia: Acetic acid test, percentages” value (mice [2]) is on record?
**A.** The value was -88%.

**Q.** For CN(C)C(C)(CO)Cc1ccc(Cl)c(Cl)c1 (single isomer, unassigned; (-)) [JO 1239, (-) 2-methyl-2-dimethylamino-3-(3,4-dichlorophenyl)-propanol], which “S.N.C.: Hanging test, activity percentages compared with the controls” value (mice [1]; Dose: 32 mg/kg, 32 mg/kg) is on record?
**A.** The value was -74%.

**Q.** What about the “S.N.C.: Hanging test, activity percentages compared with the controls” value (mice [1]; Dose: 128 mg/kg, 128 mg/kg) of the same molecule?
**A.** Its value is -64%.

**Q.** And the “Analgesia: Acetic acid test, percentages” value (mice [2])?
**A.** Its value is -86%.

**Q.** What about the ED50 (mice [2]) of the same molecule?
**A.** Its ED50 is 11 mg/kg.

**Q.** With CCNC(C)(CO)Cc1ccc(Cl)c(Cl)c1 (single isomer, unassigned; (-)) [JO 1296, (-) 2-methyl-2-ethylamino-3-(3,4-dichlorophenyl)-propanol] as the molecule, how does the “Analgesia: Acetic acid test, percentages” value (mice [2]) read?
**A.** Its value is -38%.

**Q.** What does the source list for CN(C)CCCN1c2ccccc2CCc2ccc(Cl)cc21 [Clomipramine, clomipramine, reference compound]?
**A.** change in vivo at 32 mg/kg (mice [1]; Dose: 32 mg/kg): -49%; change in vivo at 128 mg/kg (mice [1]; Dose: 128 mg/kg): -54%

— patent US4994617A, “Aminoalcohols, their preparation process and their applications, particularly in therapeutics” (Jouveinal S.A., priority 1986, dated 1991)
